Here are results for one compound from publication PMC10796634, “Discovery of plant chemical defence mediated by a two-component system involving β-glucosidase in Panax species” (Nature Communications, 2024).

Broadly, the Km is the concentration of substrate that gives half-maximal velocity.

The subject of this assay is PnGH1. The assay is described as follows: HPLC quantification of product Fd, Michaelis-Menten fit. Type of assay: biochemical, Panax notoginseng. Particulars: pH 5.0 (50 mM Tris-HCl), 60 °C, 30 min, 30–8000 µM Rb3.

Consider `CC(C)=CCC[C@](C)(O[C@@H]1O[C@H](CO[C@@H]2OC[C@@H](O)[C@H](O)[C@H]2O)[C@@H](O)[C@H](O)[C@H]1O)[C@H]1CC[C@]2(C)[C@@H]1[C@H](O)C[C@@H]1[C@@]3(C)CC[C@H](O[C@@H]4O[C@H](CO)[C@@H](O)[C@H](O)[C@H]4O[C@@H]4O[C@H](CO)[C@@H](O)[C@H](O)[C@H]4O)C(C)(C)[C@@H]3CC[C@]12C` [compound 4, Rb3], for which the Km is 677 ± 38.5 µM.
